{"source": "patent EP4635500A1", "about": "“THERAPEUTIC AGENT FOR BACTERIAL INFECTION” (Sumitomo Pharma Co., Ltd., priority 2022, dated 2024)", "key": {"P. aeruginosa": {"system": "P. aeruginosa", "experiment": "MIC, broth microdilution, CDC/FDA Antibiotic Resistance Isolate Bank (Example 7, Tables 10, 15)", "type": "cell-based", "conditions": "Pseudomonas aeruginosa, read-out: MIC"}, "CRE and CPE strains": {"system": "CRE and CPE strains", "experiment": "MIC, broth microdilution, standard strains and Japanese clinical isolates (Example 5, Table 4 continued; organism of each KUB strain not given)", "type": "cell-based"}}, "note": "Like-named read-outs stand apart in the source and are kept apart here."}
{"smiles": "CC(C)(O/N=C(\\C(=O)N[C@@H]1C(=O)N2C(C(=O)[O-])=C(C[N+]3(CCNC(=O)c4ccc(O)c(O)c4Cl)CCCC3)CS[C@H]12)c1csc(N)n1)C(=O)O", "note": "[Cefiderocol, cefiderocol]", "values": [{"measurement": "MIC", "setting": "P. aeruginosa; P. aeruginosa KUB No. 5685, AR Bank # 252", "result": 2000, "unit": "ng/mL"}, {"measurement": "MIC", "setting": "P. aeruginosa; P. aeruginosa KUB No. 5686, AR Bank # 253", "result": 120, "unit": "ng/mL"}, {"measurement": "MIC", "setting": "P. aeruginosa; P. aeruginosa KUB No. 5687, AR Bank # 254", "result": 500, "unit": "ng/mL"}, {"measurement": "MIC", "setting": "P. aeruginosa; P. aeruginosa KUB No. 5688, AR Bank # 255", "result": 250, "unit": "ng/mL"}, {"measurement": "MIC", "setting": "P. aeruginosa; P. aeruginosa KUB No. 5689, AR Bank # 256", "result": 2000, "unit": "ng/mL"}, {"measurement": "MIC", "setting": "P. aeruginosa; P. aeruginosa KUB No. 5690, AR Bank # 257", "result": 250, "unit": "ng/mL"}, {"measurement": "MIC", "setting": "P. aeruginosa; P. aeruginosa KUB No. 5691, AR Bank # 258", "result": 250, "unit": "ng/mL"}, {"measurement": "MIC", "setting": "P. aeruginosa; P. aeruginosa KUB No. 5692, AR Bank # 259", "result": 120, "unit": "ng/mL"}, {"measurement": "MIC", "setting": "P. aeruginosa; P. aeruginosa KUB No. 5693, AR Bank # 260", "result": 250, "unit": "ng/mL"}, {"measurement": "MIC", "setting": "P. aeruginosa; P. aeruginosa KUB No. 5694, AR Bank # 261", "result": "≤ 60", "unit": "ng/mL"}, {"measurement": "MIC", "setting": "P. aeruginosa; P. aeruginosa KUB No. 5695, AR Bank # 262", "result": 120, "unit": "ng/mL"}, {"measurement": "MIC", "setting": "P. aeruginosa; P. aeruginosa KUB No. 5696, AR Bank # 263", "result": 120, "unit": "ng/mL"}, {"measurement": "MIC", "setting": "P. aeruginosa; P. aeruginosa KUB No. 5697, AR Bank # 264", "result": 250, "unit": "ng/mL"}, {"measurement": "MIC", "setting": "P. aeruginosa; P. aeruginosa KUB No. 5698, AR Bank # 265", "result": 500, "unit": "ng/mL"}, {"measurement": "MIC", "setting": "P. aeruginosa; P. aeruginosa KUB No. 5699, AR Bank # 266", "result": 500, "unit": "ng/mL"}, {"measurement": "MIC", "setting": "P. aeruginosa; P. aeruginosa KUB No. 5700, AR Bank # 267", "result": 120, "unit": "ng/mL"}, {"measurement": "MIC", "setting": "P. aeruginosa; P. aeruginosa KUB No. 5701, AR Bank # 268", "result": 250, "unit": "ng/mL"}, {"measurement": "MIC", "setting": "P. aeruginosa; P. aeruginosa KUB No. 5702, AR Bank # 269", "result": 1000, "unit": "ng/mL"}, {"measurement": "MIC", "setting": "P. aeruginosa; P. aeruginosa KUB No. 5703, AR Bank # 270", "result": 250, "unit": "ng/mL"}, {"measurement": "MIC", "setting": "P. aeruginosa; P. aeruginosa KUB No. 5704, AR Bank # 271", "result": 250, "unit": "ng/mL"}, {"measurement": "MIC", "setting": "P. aeruginosa; P. aeruginosa KUB No. 5705, AR Bank # 272", "result": 250, "unit": "ng/mL"}, {"measurement": "MIC", "setting": "P. aeruginosa; P. aeruginosa KUB No. 5747, AR Bank # 351", "result": 250, "unit": "ng/mL"}, {"measurement": "MIC", "setting": "P. aeruginosa; P. aeruginosa KUB No. 5748, AR Bank # 352", "result": 500, "unit": "ng/mL"}, {"measurement": "MIC", "setting": "P. aeruginosa; P. aeruginosa KUB No. 5749, AR Bank # 353", "result": 1000, "unit": "ng/mL"}, {"measurement": "MIC", "setting": "P. aeruginosa; P. aeruginosa KUB No. 5750, AR Bank # 354", "result": 500, "unit": "ng/mL"}, {"measurement": "MIC", "setting": "P. aeruginosa; P. aeruginosa KUB No. 5751, AR Bank # 355", "result": 250, "unit": "ng/mL"}, {"measurement": "MIC", "setting": "P. aeruginosa; P. aeruginosa KUB No. 5752, AR Bank # 356", "result": 1000, "unit": "ng/mL"}, {"measurement": "MIC", "setting": "P. aeruginosa; P. aeruginosa KUB No. 5753, AR Bank # 357", "result": 4000, "unit": "ng/mL"}, {"measurement": "MIC", "setting": "P. aeruginosa; P. aeruginosa KUB No. 5754, AR Bank # 358", "result": 500, "unit": "ng/mL"}, {"measurement": "MIC", "setting": "P. aeruginosa; P. aeruginosa KUB No. 5755, AR Bank # 359", "result": 250, "unit": "ng/mL"}, {"measurement": "MIC", "setting": "P. aeruginosa; P. aeruginosa KUB No. 5756, AR Bank # 360", "result": 250, "unit": "ng/mL"}, {"measurement": "MIC", "setting": "P. aeruginosa; P. aeruginosa KUB No. 5785, AR Bank # 439", "result": 500, "unit": "ng/mL"}, {"measurement": "MIC", "setting": "P. aeruginosa; P. aeruginosa KUB No. 5786, AR Bank # 440", "result": 250, "unit": "ng/mL"}, {"measurement": "MIC", "setting": "P. aeruginosa; P. aeruginosa KUB No. 5787, AR Bank # 441", "result": 1000, "unit": "ng/mL"}, {"measurement": "MIC", "setting": "P. aeruginosa; P. aeruginosa KUB No. 5788, AR Bank # 443", "result": 1000, "unit": "ng/mL"}, {"measurement": "MIC", "setting": "P. aeruginosa; P. aeruginosa KUB No. 5789, AR Bank # 444", "result": 500, "unit": "ng/mL"}, {"measurement": "MIC", "setting": "P. aeruginosa; P. aeruginosa KUB No. 5790, AR Bank # 445", "result": 500, "unit": "ng/mL"}, {"measurement": "MIC", "setting": "P. aeruginosa; P. aeruginosa KUB No. 5793, AR Bank # 449", "result": 500, "unit": "ng/mL"}, {"measurement": "MIC", "setting": "P. aeruginosa; P. aeruginosa KUB No. 5798, AR Bank # 455", "result": 250, "unit": "ng/mL"}, {"measurement": "MIC", "setting": "P. aeruginosa; P. aeruginosa KUB No. 5799, AR Bank # 456", "result": 250, "unit": "ng/mL"}, {"measurement": "MIC", "setting": "P. aeruginosa; P. aeruginosa KUB No. 5800, AR Bank # 457", "result": 250, "unit": "ng/mL"}, {"measurement": "MIC", "setting": "P. aeruginosa; P. aeruginosa KUB No. 5801, AR Bank # 458", "result": 2000, "unit": "ng/mL"}, {"measurement": "MIC", "setting": "P. aeruginosa; P. aeruginosa KUB No. 5802, AR Bank # 459", "result": 120, "unit": "ng/mL"}, {"measurement": "MIC", "setting": "P. aeruginosa; P. aeruginosa KUB No. 5804, AR Bank # 862", "result": 500, "unit": "ng/mL"}, {"measurement": "MIC", "setting": "P. aeruginosa; P. aeruginosa KUB No. 5805, AR Bank # 863", "result": 500, "unit": "ng/mL"}, {"measurement": "MIC", "setting": "P. aeruginosa; P. aeruginosa KUB No. 5806, AR Bank # 864", "result": 120, "unit": "ng/mL"}, {"measurement": "MIC", "setting": "P. aeruginosa; P. aeruginosa KUB No. 5813, AR Bank # 508", "result": 1, "unit": "ng/mL"}, {"measurement": "MIC", "setting": "P. aeruginosa; P. aeruginosa KUB No. 5814, AR Bank # 509", "result": 0.5, "unit": "ng/mL"}, {"measurement": "MIC", "setting": "P. aeruginosa; P. aeruginosa KUB No. 5815, AR Bank # 510", "result": "≤ 0.06", "unit": "ng/mL"}, {"measurement": "MIC", "setting": "P. aeruginosa; P. aeruginosa KUB No. 5816, AR Bank # 511", "result": 0.25, "unit": "ng/mL"}, {"measurement": "MIC", "setting": "P. aeruginosa; P. aeruginosa KUB No. 5817, AR Bank # 512", "result": 1, "unit": "ng/mL"}, {"measurement": "MIC", "setting": "P. aeruginosa; P. aeruginosa KUB No. 5818, AR Bank # 513", "result": 0.25, "unit": "ng/mL"}, {"measurement": "MIC", "setting": "P. aeruginosa; P. aeruginosa KUB No. 5819, AR Bank # 514", "result": 0.12, "unit": "ng/mL"}, {"measurement": "MIC", "setting": "P. aeruginosa; P. aeruginosa KUB No. 5820, AR Bank # 515", "result": 1, "unit": "ng/mL"}, {"measurement": "MIC", "setting": "P. aeruginosa; P. aeruginosa KUB No. 5821, AR Bank # 516", "result": 0.5, "unit": "ng/mL"}, {"measurement": "MIC", "setting": "P. aeruginosa; P. aeruginosa KUB No. 5823, AR Bank # 518", "result": 0.25, "unit": "ng/mL"}, {"measurement": "MIC", "setting": "P. aeruginosa; P. aeruginosa KUB No. 5831, AR Bank # 526", "result": 0.12, "unit": "ng/mL"}, {"measurement": "MIC", "setting": "P. aeruginosa; P. aeruginosa KUB No. 5832, AR Bank # 527", "result": 0.25, "unit": "ng/mL"}, {"measurement": "MIC", "setting": "P. aeruginosa; P. aeruginosa KUB No. 5833, AR Bank # 528", "result": 0.25, "unit": "ng/mL"}, {"measurement": "MIC", "setting": "P. aeruginosa; P. aeruginosa KUB No. 5834, AR Bank # 529", "result": "≤ 0.06", "unit": "ng/mL"}, {"measurement": "MIC", "setting": "CRE and CPE strains; strain KUB3149, carbapenemase gene NDM-1, read-out: MIC", "result": 2, "unit": "µg/mL"}, {"measurement": "MIC", "setting": "CRE and CPE strains; strain KUB3150, carbapenemase gene OXA-48, read-out: MIC", "result": "≤ 0.06", "unit": "µg/mL"}, {"measurement": "MIC", "setting": "CRE and CPE strains; strain KUB3151, carbapenemase gene IMP-1, read-out: MIC", "result": 1, "unit": "µg/mL"}, {"measurement": "MIC", "setting": "CRE and CPE strains; strain KUB3152, carbapenemase gene KPC-2, read-out: MIC", "result": 2, "unit": "µg/mL"}, {"measurement": "MIC", "setting": "CRE and CPE strains; strain KUB3154, carbapenemase gene KPC-2, read-out: MIC", "result": 4, "unit": "µg/mL"}, {"measurement": "MIC", "setting": "CRE and CPE strains; strain KUB3157, carbapenemase gene NDM-1", "result": 8, "unit": "µg/mL"}, {"measurement": "MIC", "setting": "CRE and CPE strains; strain KUB3164, carbapenemase gene IMP-6", "result": 0.12, "unit": "µg/mL"}]}
